Structures can show the parent of a compound that is named as a salt.
Question: Which melting point does the source give for `CC(C)=CCn1c(NCC(C)(C)N)nc2c1c(=O)n(C)c(=O)n2C` [Example 1(134), 1,3-dimethyl-7-(3-methyl-2-buten-1-yl)-8-(2-amino-2-methyl-propylamino)-xanthine] here?
Answer: Its melting point is 140.5 to 143 °C.

Question: Which melting point does the source give for `CC(C)=CCn1c(N2CCCC(N)(C(=O)N3CCCC3)C2)nc2c1c(=O)n(C)c(=O)n2C` (stereo not shown) (as salt: sodium) [Example 1(139), 1,3-dimethyl-7-(3-methyl-2-buten-1-yl)-8-[3-amino-3-(pyrrolidin-1-ylcarbonyl)-piperidin-1-yl]-xanthine] here?
Answer: The melting point was 159 to 160 °C.

Question: Which melting point does the source give for `CC(C)=CCn1c(N2CCCC(N)C2)nc2c1c(=O)n(C)c(=O)n2CCC#N` (stereo not shown) [Example 2(62), 1-methyl-3-(2-cyano-ethyl)-7-(3-methyl-2-buten-1-yl)-8-(3-amino-piperidin-1-yl)-xanthine] here?
Answer: The melting point was 146 to 149 °C.

Question: With `CC(C)=CCn1c(N2CCCC(N)C2)nc2c1c(=O)n(CCn1cccc1)c(=O)n2C` (stereo not shown) [Example 1(61), 1-[2-(pyrrol-1-yl)-ethyl]-3-methyl-7-(3-methyl-2-buten-1-yl)-8-(3-amino-piperidin-1-yl)-xanthine] as the compound, how does the melting point read?
Answer: The melting point was 136 to 138.6 °C.

Question: With `CC(C)=CCn1c(N2CCCC(N)C2)nc2c1c(=O)n(CCc1cccc([N+](=O)[O-])c1)c(=O)n2C` (stereo not shown) [Example 1(99), 1-[2-(3-nitro-phenyl)-ethyl]-3-methyl-7-(3-methyl-2-buten-1-yl)-8-(3-amino-piperidin-1-yl)-xanthine] as the compound, how does the melting point read?
Answer: Its melting point is 120.8 to 122 °C.

Question: With `Cn1c(=O)c2c(nc(N3CCCC(N)C3)n2C)n(C)c1=O` (stereo not shown) [Example 1(115), 1,3,7-trimethyl-8-(3-amino-piperidin-1-yl)-xanthine] as the compound, how does the melting point read?
Answer: The melting point was 147 °C.

Question: For `CC(C)=CCn1c(N2CCCC(N)C2)nc2c1c(=O)n(CCc1cccc(Br)c1)c(=O)n2C` (stereo not shown) [Example 1(87), 1-[2-(3-bromo-phenyl)-ethyl]-3-methyl-7-(3-methyl-2-buten-1-yl)-8-(3-amino-piperidin-1-yl)-xanthine], which melting point is on record?
Answer: The melting point was 116.5 to 117.5 °C.

Question: With `CC(C)=CCn1c(N(C)CC(N)C(=O)N2CCCC2)nc2c1c(=O)n(C)c(=O)n2C` (stereo not shown) [Example 2(142), 1,3-dimethyl-7-(3-methyl-2-buten-1-yl)-8-{N-[2-amino-3-oxo-3-(pyrrolidin-1-yl)-propyl]-N-methyl-amino}-xanthine] as the compound, how does the melting point read?
Answer: The melting point was 138 °C.

Question: With `CC(C)=CCn1c(N2CCC[C@H]2CN)nc2c1c(=O)n(C)c(=O)n2C` [Example 1(76), 1,3-dimethyl-7-(3-methyl-2-buten-1-yl)-8-{(S)-[2-(aminomethyl)-pyrrolidin-1-yl]}-xanthine] as the compound, how does the melting point read?
Answer: The melting point was 112 to 115 °C.

Question: Which melting point does the source give for `CC(C)=CCn1c(N2CCCC(N)C2)nc2c1c(=O)n(C)c(=O)n2C(C)C` (stereo not shown) [Example 2(60), 1-methyl-3-isopropyl-7-(3-methyl-2-buten-1-yl)-8-(3-amino-piperidin-1-yl)-xanthine] here?
Answer: Its melting point is 115 to 117 °C.

Question: With `CC(C)=CCn1c(N2CCCC(N)C2)nc2c1c(=O)n(CCc1c(C)cc(C)cc1C)c(=O)n2C` (stereo not shown) [Example 1(36), 1-[2-(2,4,6-trimethyl-phenyl)-ethyl]-3-methyl-7-(3-methyl-2-buten-1-yl)-8-(3-amino-piperidin-1-yl)-xanthine] as the compound, how does the melting point read?
Answer: The melting point was 153 to 154.5 °C.

Question: With `CC(C)=CCn1c(NC[C@@H](C)N)nc2c1c(=O)n(C)c(=O)n2C` [Example 1(135), 1,3-dimethyl-7-(3-methyl-2-buten-1-yl)-8-((R)-2-amino-propylamino)-xanthine] as the compound, how does the melting point read?
Answer: The melting point was 141 to 144 °C.

Question: Which melting point does the source give for `CC(C)=CCn1c(N2CCCC(N)C2)nc2c1c(=O)n(CCc1cc(F)cc(F)c1)c(=O)n2C` (stereo not shown) [Example 2(36), 1-[2-(3,5-difluoro-phenyl)-ethyl]-3-methyl-7-(3-methyl-2-buten-1-yl)-8-(3-amino-piperidin-1-yl)-xanthine] here?
Answer: Its melting point is 162 to 163.5 °C.

Question: For `CC(C)=CCn1c(N2CCC(N)C2)nc2c1c(=O)n(C)c(=O)n2C` (stereo not shown) [Example 1(1), 1,3-dimethyl-7-(3-methyl-2-buten-1-yl)-8-(3-amino-pyrrolidin-1-yl)-xanthine], which melting point is on record?
Answer: Its melting point is 119 °C.

Question: For `C#CCCn1c(=O)c2c(nc(N3CCCC(N)C3)n2CC=C(C)C)n(C)c1=O` (stereo not shown) [Example 1(65), 1-(3-butyn-1-yl)-3-methyl-7-(3-methyl-2-buten-1-yl)-8-(3-amino-piperidin-1-yl)-xanthine], which melting point is on record?
Answer: The melting point was 150 to 152 °C.

Question: For `COC(=O)Cn1c(=O)c2c(nc(N3CCC[C@H](N)C3)n2CC=C(C)C)n(C)c1=O` [Example 2(19), 1-[(methoxycarbonyl)-methyl]-3-methyl-7-(3-methyl-2-buten-1-yl)-8-((S)-3-amino-piperidin-1-yl)-xanthine], which melting point is on record?
Answer: Its melting point is 102 to 105 °C.

Question: With `CC(C)=CCn1c(N2CCCC(N)C2)nc2c1c(=O)n(CCc1ccc(C)cc1)c(=O)n2C` (stereo not shown) [Example 1(100), 1-[2-(4-methyl-phenyl)-ethyl]-3-methyl-7-(3-methyl-2-buten-1-yl)-8-(3-amino-piperidin-1-yl)-xanthine] as the compound, how does the melting point read?
Answer: Its melting point is 129 to 130.2 °C.

Question: For `CC(C)=CCn1c(N2CCC[C@H](N)C2)nc2c1c(=O)n(CCC(=O)O)c(=O)n2C` [Example 6(4), 1-(2-carboxy-ethyl)-3-methyl-7-(3-methyl-2-buten-1-yl)-8-((S)-3-amino-piperidin-1-yl)-xanthine], which melting point is on record?
Answer: Its melting point is 226 to 228 °C.

Question: For `CN[C@H]1CCCC[C@H]1Nc1nc2c(c(=O)n(C)c(=O)n2C)n1CC=C(C)C` (relative stereo) [Example 1(77), 1,3-dimethyl-7-(3-methyl-2-buten-1-yl)-8-[cis-(2-methylamino-cyclohexyl)amino]-xanthine], which melting point is on record?
Answer: The melting point was 172.5 to 175 °C.

Question: For `CC(C)=CCn1c(N2CCCC(N)C2)nc2c1c(=O)n(CCc1ccccc1)c(=O)n2CC(=O)O` (stereo not shown) [Example 6(5), 1-(2-phenyl-ethyl)-3-carboxymethyl-7-(3-methyl-2-buten-1-yl)-8-(3-amino-piperidin-1-yl)-xanthine], which melting point is on record?
Answer: The melting point was 228 to 235 °C.

Question: With `COc1cccc(CCn2c(=O)c3c(nc(N4CCCC(N)C4)n3CC=C(C)C)n(C)c2=O)c1` (stereo not shown) [Example 1(86), 1-[2-(3-methoxy-phenyl)-ethyl]-3-methyl-7-(3-methyl-2-buten-1-yl)-8-(3-amino-piperidin-1-yl)-xanthine] as the compound, how does the melting point read?
Answer: Its melting point is 118.5 to 119.5 °C.

Question: Which melting point does the source give for `Cn1c(=O)c2c(nc(N3CCC(N)C3)n2Cc2ccccc2)n(C)c1=O` (stereo not shown) [Example 1, 1,3-dimethyl-7-benzyl-8-(3-amino-pyrrolidin-1-yl)-xanthine] here?
Answer: Its melting point is 150 °C.

Question: For `CC(C)=CCn1c(N2CCCC(N)C2)nc2c1c(=O)n(CCc1cccc(F)c1)c(=O)n2C` (stereo not shown) [Example 1(98), 1-[2-(3-fluoro-phenyl)-ethyl]-3-methyl-7-(3-methyl-2-buten-1-yl)-8-(3-amino-piperidin-1-yl)-xanthine], which melting point is on record?
Answer: The melting point was 126.8 to 127.5 °C.

Question: For `CCOC(=O)c1ccc(CCn2c(=O)c3c(nc(N4CCC[C@H](N)C4)n3CC=C(C)C)n(C)c2=O)cc1` [Example 2(21), 1-{2-[4-(ethoxycarbonyl)-phenyl]-ethyl}-3-methyl-7-(3-methyl-2-buten-1-yl)-8-((S)-3-amino-piperidin-1-yl)-xanthine], which melting point is on record?
Answer: Its melting point is 142 to 144 °C.

Question: With `C=CCCn1c(=O)c2c(nc(N3CCCC(N)C3)n2CC=C(C)C)n(C)c1=O` (stereo not shown) [Example 1(66), 1-(3-butene-1-yl)-3-methyl-7-(3-methyl-2-buten-1-yl)-8-(3-amino-piperidin-1-yl)-xanthine] as the compound, how does the melting point read?
Answer: The melting point was 111 to 112.6 °C.

— patent US20130165428A1, “XANTHINE DERIVATIVES, THE PREPARATION THEREOF AND THEIR USE AS PHARMACEUTICAL COMPOSITIONS” (Boehringer Ingelheim Pharma GmbH & Co. KG, priority 2001, published 2013)
